The test system of one experiment is rNav1.2. Kind of experiment: TEVC inhibition, Nav1.2. The experiment is classed as cell-based, rat. To be noted: 1 µM, Xenopus oocytes, ND96, 18–22 °C, mean ± SEM, n ≥ 3. An excerpt:
For the expression of Kv channels rat Kv1.1 (GenBank accession number: NM_173095 [88, 89]), rKv1.2 (NM_012970 [90, 91]), human Kv1.3 (NM_002232 [92, 93]), rKv1.4 (NM_012971 [94, 95]), rKv1.6 (NM_023954 [96, 97]), hKv2.1 (NM_004975 [98, 99]), hKv3.1 (NM_004976 [100, 101]), rKv4.2 (NM_031739 [102, 103]), hKv10.1 (NM_172362 [104, 105]), hERG1 [Kv11.1, (NM_000238 [106, 107])], and Shaker IR [from Drosophila melanogaster, (NM_167595 [108, 109])], Nav channels [rNav1.2 (NM_012647 [42, 110]), rNav1.4 (NM_013178 [111, 112]), hNav1.5 (NM_198056 [113, 114]), mNav1.6 (NM_001077499 [115, 116]), BgNav [from Blattella germanica, (DQ466887 [117, 118])] and the auxiliary subunits rβ1 (NM_001271045 [119, 120]), hβ1 (NM_001037 [121, 122]), and TipE [from D. melanogaster, (NM_079196 [109, 123])], and Cav channels hCav3.1 [124, 125], hCav3.2 [126, 127], and hCav3.3 [128, 129] in Xenopus oocytes, the linearized plasmids were transcribed using the T7 or SP6 mMESSAGEmMACHINE transcription kit (Ambion, Austin, TX, USA). […]
Whole-cell currents of oocytes were recorded 1 to 3 days after injection. […] The current–voltage (IV) relationships were determined by 100-ms step depolarizations between − 90 and + 40 mV, using 5 mV increments. […]

In experiment [1] the test system is HMEC-1 human microvascular endothelial cells. Kind of experiment: Proliferation of HMEC-1 cells (crystal violet). The note with it: 25 µg/ml. The experiment is classed as cell-based. As for the experimental part: We initially determined the cytotoxic effects of xibalbins on primary sensory neurons from adult male rats cultured in vitro [2]. […] We exposed overnight cultures of dissociated rat dorsal root ganglions (DRGs) to xibalbins for 5 and 30 min. Subsequently, all cells were fixed and immunocytochemically stained for the neuronal marker UCHL1 to identify neurons. The entire culture was digitally scanned using high content imaging (HCI) microscopy, and cell numbers, UCHL1 staining per cell, and cell size was analyzed. No loss of neurons was induced by either of the tested xibalbins, even at the highest concentration of 0.8 µg/µL (Additional File 3: Figure S2). […] We further investigated the potential toxicity of xibalbins in monocyte/macrophage-like cells (RAW264.7) and human microvascular endothelial cells (HMEC); see Additional File 5: Figure S4 The viability of RAW264.7 cells was detected using a formazan-based assay, while the proliferation of HMECs was assessed by measuring the number of crystal violet-stained cells.
Supplementary file 12915_2024_1955_MOESM5_ESM.jpg: Additional file 5: Figure S4. Effects of xibalbins on cytotoxicity in RAW264.7 macrophages and adhesion of leukocytes onto the vascular endothelium. […] Cells were incubated with WST-8 and the formed formazan was detected by absorbance measurements. […] The amount of DNA-bound crystal violet was detected by absorbance measurements. […]

Positions of bridges follow the written chain, without caps; N, C: chain ends. No end group written: not given here.

As for “KRSCIRRFGRCDHRPNDCCYNSSCRCNLWGSNCRCQRMGLFQKWGK (disulfide 4-19, 11-24, 18-35, 26-33) [xib13]”, the “inhibition of Nav1.2” value in the experiment with rNav1.2 is listed as 15.6 ± 2.6%. For the same sequence, the “Prolif. HMEC-1” value in experiment [1] worked out at 91.3.

The values are drawn from article PMC11288129, “Diversely evolved xibalbin variants from remipede venom inhibit potassium channels and activate PKA-II and Erk1/2 signaling” (BMC Biology, 2024).
